Patent US10703756B2, “Pyrrolo[2,3-D]pyrimidinyl, pyrrolo[2,3-B]pyrazinyl, pyrrolo[2,3-B]pyridinyl acrylamides and epoxides thereof” (Pfizer Inc., priority 2015, dated 2020)

Columns and labels:
JAK3 enzyme [1] = target: T1, JAK3 enzyme (Homo sapiens, UniProt P52333); assay: JAK Caliper Enzyme Assay at 4 μM ATP; assay type: biochemical
T1 sequence (P52333 1-1124): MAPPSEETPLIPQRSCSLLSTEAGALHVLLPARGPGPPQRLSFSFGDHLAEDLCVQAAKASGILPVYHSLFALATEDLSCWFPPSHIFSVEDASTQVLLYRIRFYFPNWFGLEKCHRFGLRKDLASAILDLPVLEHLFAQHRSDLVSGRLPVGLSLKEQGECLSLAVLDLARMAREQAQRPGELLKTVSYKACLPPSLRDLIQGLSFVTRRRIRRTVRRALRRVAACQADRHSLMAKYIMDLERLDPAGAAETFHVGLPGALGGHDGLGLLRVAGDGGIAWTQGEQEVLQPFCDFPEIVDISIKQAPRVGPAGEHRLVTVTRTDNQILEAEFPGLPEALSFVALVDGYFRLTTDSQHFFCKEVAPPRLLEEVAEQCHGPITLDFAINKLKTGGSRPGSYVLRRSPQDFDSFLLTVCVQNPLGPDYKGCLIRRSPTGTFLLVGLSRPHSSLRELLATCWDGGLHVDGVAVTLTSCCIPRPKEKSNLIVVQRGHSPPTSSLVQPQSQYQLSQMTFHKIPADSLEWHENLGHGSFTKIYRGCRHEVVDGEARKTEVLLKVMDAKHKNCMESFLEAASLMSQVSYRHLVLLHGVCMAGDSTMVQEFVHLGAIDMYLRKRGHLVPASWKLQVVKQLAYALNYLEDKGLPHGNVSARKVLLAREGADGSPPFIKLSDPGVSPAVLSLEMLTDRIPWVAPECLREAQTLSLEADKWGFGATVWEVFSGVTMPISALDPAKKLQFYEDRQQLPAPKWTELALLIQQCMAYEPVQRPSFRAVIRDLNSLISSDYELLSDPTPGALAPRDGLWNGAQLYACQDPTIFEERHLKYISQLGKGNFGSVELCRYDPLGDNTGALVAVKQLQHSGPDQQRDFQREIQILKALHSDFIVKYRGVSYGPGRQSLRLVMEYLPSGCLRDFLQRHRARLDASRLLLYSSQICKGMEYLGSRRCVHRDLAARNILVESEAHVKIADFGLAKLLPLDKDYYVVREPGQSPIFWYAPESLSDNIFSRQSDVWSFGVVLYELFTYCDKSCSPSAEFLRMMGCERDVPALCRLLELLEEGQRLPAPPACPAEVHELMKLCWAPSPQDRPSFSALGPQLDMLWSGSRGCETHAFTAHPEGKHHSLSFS
How it was run: (§1)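 Read-out: microfluidic mobility-shift separation quantifying substrate peptide versus phosphopeptide. Compounds were tested as 11-point half-log dilutions, top 600 μM in DMSO before transfer. Enzyme level and reaction time were tuned for each prep so conversion stayed at 20%-30%.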

JAK3 enzyme [2] = target: T1, JAK3 enzyme; assay: JAK Caliper Enzyme Assay at 1 mM ATP; assay type: biochemical
How it was run: as §1

[3] = test system: IL-15 induced STAT5 phosphorylation in human whole blood lymphocytes; assay: HWB IL-15 Induced STAT5 Phosphorylation Assay; assay type: cell-based; conditions: Lymphocyte, IL-15 final 50 ng/ml, read-out: HWB_IL15 pSTAT5 IC50
Description: HWB IL-15 Induced STAT5 Phosphorylation Assay
After serial dilution of the test compounds 1:2 in DMSO at desired concentration (500× of final), the compounds were further diluted in PBS (by adding 4 μL compound/DMSO in 96 μL PBS, [DMSO]=4%, 20× final). To 96-well polypropylene plates were added 90 μl HWB (heparin treated Human Whole Blood)/well, followed by 5 μl/well 4% DMSO in D-PBS or various concentrations of 20× inhibitor in 4% DMSO in D-PBS (w/o Ca^+2 or Mg^+2) to give 1× in 0.2% DMSO. After mixing and incubating for 45 minutes at 37° C., 5 μl D-PBS (unstimulated control) or 20× stocks of 5 μl human IL-15 (final concentration is 50 ng/ml) were added, and mixed three times. After incubating 15 minutes at 37° C., 1× Lyse/Fix Buffer (BD Phosflow 5× Lyse/Fix Buffer) was added to all wells at 1000 μl/well, then incubated for 20 minutes at 37° C. and spun 5 mins at 1200 rpm. After washing in 1000 μl FACS buffer 1× and spinning for 5 mins at 1200 rpm, 400 μl ice cold Perm Buffer III were added to each well. After mixing gently (1-2×) and incubating on ice for 30 minutes, spinning for 5 mins at 1200 rpm without interruption, and washing 1× in cold […] FACS buffer (D-PBS containing 0.1% BSA and 0.1% sodium azide) 250 μl/well of the desired AlexaFluor647-conjugated anti-phospho STATS antibody at 1:125 dilution in FACS buffer was added. Following incubating at 4° C. over night, all the samples were transferred to 96-well polypropylene U-bottom plate, and checked by flow cytometry gated on total lymphocytes.

[4] = test system: IL-15 induced P-STAT5 in human PBMC; assay: PBMC IL-15 Induced P-STAT5; assay type: cell-based; conditions: human PBMC, IL-15 final 41 ng/mL; read-out: PBMC IL15_pSTAT5_IC50
How it was run: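 Flow cytometry gated on total lymphocytes measured STAT5 staining (Alexa Fluor 647 antibody, overnight, 4 °C) in fixed, methanol-permeabilised human PBMC. Cells had received compound for 15 min at 37 °C (0.2% DMSO final), followed by 41 ng/mL final human IL-15 for 15 min.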

SMILES | IC50 (JAK3 enzyme [1]) | IC50 (JAK3 enzyme [2]) | IC50 [3] | IC50 [4]
C=CC(=O)N1CCC(Nc2cnc3[nH]cc(C(=O)NCc4ccc(F)c(OC)c4)c3n2)CC1 [Example 174, 2-[(1-acryloylpiperidin-4-yl)amino]-N-(4-fluoro-3-methoxybenzyl)-5H-pyrrolo[2,3-b]pyrazine-7-carboxamide] | 0.000368 µM | 0.013 µM | 1.73 µM | 0.162 µM
C=CC(=O)N1CCC(Nc2cnc3[nH]cc(C(=O)NCc4cc(C(C)C)no4)c3n2)CC1 [Example 175, 2-[(1-acryloylpiperidin-4-yl)amino]-N-{[3-(propan-2-yl)-1,2-oxazol-5-yl]methyl}-5H-pyrrolo[2,3-b]pyrazine-7-carboxamide] | 0.000426 µM | 0.008 µM | 1.32 µM | 0.0773 µM
C=CC(=O)N1CCC(Nc2cnc3[nH]cc(C(=O)NCC(F)(F)C(F)(F)F)c3n2)CC1 [Example 179, 2-[(1-acryloylpiperidin-4-yl)amino]-N-(2,2,3,3,3-pentafluoropropyl)-5H-pyrrolo[2,3-b]pyrazine-7-carboxamide] | 0.000596 µM | 0.018 µM | 0.85 µM | 0.0948 µM
C=CC(=O)N1CCC(Nc2cnc3[nH]cc(C(=O)NCc4sc(C(F)(F)F)nc4C)c3n2)CC1 [Example 180, 2-[(1-acryloylpiperidin-4-yl)amino]-N-{[4-methyl-2-(trifluoromethyl)-1,3-thiazol-5-yl]methyl}-5H-pyrrolo[2,3-b]pyrazine-7-carboxamide] | 0.000481 µM | 0.012 µM | 0.944 µM | 0.204 µM
C=CC(=O)N1CCC(Nc2cnc3[nH]cc(C(=O)NCc4ccc(OC(F)F)cc4)c3n2)CC1 [Example 181, 2-[(1-acryloylpiperidin-4-yl)amino]-N-[4-(difluoromethoxy)benzyl]-5H-pyrrolo[2,3-b]pyrazine-7-carboxamide] | 0.000379 µM | 0.005 µM | 1.82 µM | 0.159 µM
C=CC(=O)N1CCC(Nc2cnc3[nH]cc(C(=O)NCc4scnc4C(F)(F)F)c3n2)CC1 [Example 185, 2-[(1-acryloylpiperidin-4-yl)amino]-N-{[4-(trifluoromethyl)-1,3-thiazol-5-yl]methyl}-5H-pyrrolo[2,3-b]pyrazine-7-carboxamide] | 0.000372 µM | 0.006 µM | 0.542 µM | 0.073 µM
C=CC(=O)N1CCC(Nc2cnc3[nH]cc(C(=O)NCc4ccc(Cl)cn4)c3n2)CC1 [Example 186, 2-[(1-acryloylpiperidin-4-yl)amino]-N-[(5-chloropyridin-2-yl)methyl]-5H-pyrrolo[2,3-b]pyrazine-7-carboxamide] | 0.000485 µM | 0.015 µM | 0.87 µM | 0.213 µM
C=CC(=O)N1CCC(Nc2cnc3[nH]cc(C(=O)NCc4ccc(OC)c(F)c4)c3n2)CC1 [Example 190, 2-[(1-acryloylpiperidin-4-yl)amino]-N-(3-fluoro-4-methoxybenzyl)-5H-pyrrolo[2,3-b]pyrazine-7-carboxamide] | 0.000193 µM | 0.007 µM | 0.619 µM | 0.0969 µM
C=CC(=O)N1CCC(Nc2cnc3[nH]cc(C(=O)NCc4ccc(OC)cc4)c3n2)CC1 [Example 191, 2-[(1-acryloylpiperidin-4-yl)amino]-N-(4-methoxybenzyl)-5H-pyrrolo[2,3-b]pyrazine-7-carboxamide] | 0.000484 µM | 0.009 µM | 0.778 µM | 0.137 µM
C=CC(=O)N1CCC(Nc2cnc3[nH]cc(C(=O)NCC4CCC4)c3n2)CC1 [Example 193, 2-[(1-acryloylpiperidin-4-yl)amino]-N-(cyclobutylmethyl)-5H-pyrrolo[2,3-b]pyrazine-7-carboxamide] | 0.000393 µM | 0.005 µM | 0.637 µM | 0.0684 µM
